Data set [1] has as its system Barnyardgrass (Echinochloa crus-galli). The data set can be described thus: Postemergence herbicidal activity, Barnyardgrass. The format is in vivo. The conditions noted are these: post-emergence, 336 h, visual score after 2 weeks, 0 = no injury, 100 = complete kill, read-out: Post-emergent % control ECHCG; for pest or weed control at 250 ppm: rate 250 ppm. The procedure:
(§1) Seeds of the desired test plant species were planted in Grace-Sierra MetroMix® 306 planting mixture, which typically has a pH of 6.0 to 6.8 and an organic matter content of about 30 percent, in plastic pots with a surface area of 64 square centimeters. When required to ensure good germination and healthy plants, a fungicide treatment and/or other chemical or physical treatment was applied. The plants were grown for 7-21 days in a greenhouse with an approximate 15 hr photoperiod which was maintained at about 23-29° C. during the day and 22-28° C. during the night. Nutrients and water were added on a regular basis and supplemental lighting was provided with overhead metal halide 1000-Watt lamps as necessary. The plants were employed for testing when they reached the first or second true leaf stage. A weighed amount, determined by the highest rate to be tested, of each test compound was placed in a 20 mL glass vial and was dissolved in 4 mL of a 97:3 v/v (volume/volume) mixture of acetone and dimethyl sulfoxide (DMSO) to obtain concentrated stock solutions. […] The concentrated stock solutions obtained were diluted with an aqueous mixture containing acetone, water, isopropyl alcohol, DMSO, Atplus 411F crop oil concentrate, and Triton X-155 surfactant in a 48.5:39:10:1.5:1.0:0.02 v/v ratio to obtain spray solutions of known concentration. The solutions containing the highest concentration to be tested were prepared by diluting 2 mL aliquots of the stock solution with 13 mL of the mixture and lower concentrations were prepared by serial dilution of the stock solution. Approximately 1.5 mL aliquots of each solution of known concentration were sprayed evenly onto each of the test plant pots using a DeVilbiss atomizer driven by compressed air pressure of 2 to 4 psi (140 to 280 kilopascals) to obtain thorough coverage of each plant. Control plants were sprayed in the same manner with the aqueous mixture. In this test an application rate of 1 ppm results in the application of approximately 1 g/Ha. The treated plants and control plants were placed in a greenhouse as described above and watered by sub-irrigation to prevent wash-off of the test compounds. After 2 weeks the condition of the test plants as compared with that of the untreated plants was determined visually and scored on a scale of 0 to 100 percent where 0 corresponds to no injury and 100 corresponds to complete kill.

Data set [2] concerns Lambsquarter (Chenopodium album). The data set can be described thus: Preemergence herbicidal activity, Lambsquarter. The format is in vivo. The conditions noted are these: pre-emergence, 504 h, visual score after 3 weeks, 100 = complete kill or no germination, read-out: Pre-emergent % control CHEAL; for pest or weed control at 140 ppm: rate 140 ppm; for pest or weed control at 560 ppm: rate 560 ppm; for pest or weed control at 280 ppm: rate 280 ppm. From the text: (§2) Seeds of the desired test plant species were planted in a soil matrix prepared by mixing a loam soil (43 percent silt, 19 percent clay, and 38 percent sand, with a pH of about 8.1 and an organic matter content of about 1.5 percent) and sand in a 70 to 30 ratio. The soil matrix was contained in plastic pots with a surface area of 113 square centimeters. When required to ensure good germination and healthy plants, a fungicide treatment and/or other chemical or physical treatment was applied. A weighed amount, determined by the highest rate to be tested, of each test compound was placed in a 20 mL glass vial and was dissolved in 4 mL of a 97:3 v/v (volume/volume) mixture of acetone and dimethyl sulfoxide to obtain concentrated stock solutions. […] The stock solutions obtained were diluted with a 99.9:0.1 mixture of water and Tween® […] surfactant to obtain application solutions of known concentration. The solutions containing the highest concentration to be tested were prepared by diluting 2 mL aliquots of the stock solution with 15 mL of the mixture and lower concentrations were prepared by serial dilution of the stock solution. A 2.5 mL aliquot of each solution of known concentration was sprayed evenly onto the soil surface (113 sq. cm) of each seeded pot using a Cornwall 5.0 mL glass syringe fitted with a TeeJet TN-3 hollow cone nozzle to obtain thorough coverage of the soil in each pot. Control pots were sprayed in the same manner with the aqueous mixture. The treated pots and control pots were placed in a greenhouse maintained with an approximate 15 hr photoperiod and temperatures of about 23-29° C. during the day and 22-28° C. during the night. Nutrients and water were added on a regular basis and supplemental lighting was provided with overhead metal halide 1000-Watt lamps as necessary. The water was added by top-irrigation. After 3 weeks the condition of the test plants that germinated and grew as compared with that of the untreated plants that germinated and grew was determined visually and scored on a scale of 0 to 100 percent where 0 corresponds to no injury and 100 corresponds to complete kill or no germination.

The subject of data set [3] is Ivyleaf Morningglory (Ipomoea hederacea). The data set can be described thus: Preemergence herbicidal activity, Ivyleaf Morningglory. Type of data set: in vivo. The conditions noted are these: pre-emergence, 504 h, visual score after 3 weeks, 100 = complete kill or no germination, read-out: Pre-emergent % control IPOHE; for pest or weed control at 140 ppm: rate 140 ppm; for pest or weed control at 560 ppm: rate 560 ppm; for pest or weed control at 280 ppm: rate 280 ppm.
Source text: as §2

Data set [4] concerns Cocklebur (Xanthium strumarium). The data set can be described thus: Postemergence herbicidal activity, Cocklebur. The format is in vivo. Conditions: post-emergence, 336 h, visual score after 2 weeks, 0 = no injury, 100 = complete kill, read-out: Post-emergent % control XANST; for pest or weed control at 250 ppm: rate 250 ppm. The procedure: as §1
In data set [5] the test system is Giant Foxtail (Setaria faberi). In words: Postemergence herbicidal activity, Giant Foxtail. Type of data set: in vivo. The conditions noted are these: post-emergence, 336 h, visual score after 2 weeks, 0 = no injury, 100 = complete kill, read-out: Post-emergent % control SETFA; for pest or weed control at 250 ppm: rate 250 ppm. The procedure: as §1
The subject of data set [6] is Crabgrass(large) (Digitaria sanguinalis). The data set can be described thus: Preemergence herbicidal activity, Crabgrass(large). The format is in vivo. The conditions noted are these: pre-emergence, 504 h, visual score after 3 weeks, 100 = complete kill or no germination, read-out: Pre-emergent % control DIGSA; for pest or weed control at 140 ppm: rate 140 ppm; for pest or weed control at 560 ppm: rate 560 ppm; for pest or weed control at 280 ppm: rate 280 ppm.
Source text: as §2

Data set [7] deals with Lambsquarter (Chenopodium album). The data set can be described thus: Postemergence herbicidal activity, Lambsquarter. Type of data set: in vivo. The conditions noted are these: post-emergence, 336 h, visual score after 2 weeks, 0 = no injury, 100 = complete kill, read-out: Post-emergent % control CHEAL; for pest or weed control at 250 ppm: rate 250 ppm. The procedure:
as §1

Data set [8] concerns Giant Foxtail (Setaria faberi). The data set can be described thus: Preemergence herbicidal activity, Giant Foxtail. The format is in vivo. Conditions: pre-emergence, 504 h, visual score after 3 weeks, 100 = complete kill or no germination, read-out: Pre-emergent % control SETFA; for pest or weed control at 140 ppm: rate 140 ppm; for pest or weed control at 560 ppm: rate 560 ppm; for pest or weed control at 280 ppm: rate 280 ppm.
Source text: as §2

Structures are written as SMILES.

With `CCc1nc(C(=O)OC)c(Cl)c(N)c1F` [Compound 3, Methyl 4-amino-3-chloro-6-ethyl-5-fluoropyridine-2-carboxylate], the melting point was 109 to 110 °C. Also, in data set [1], the pest or weed control at 250 ppm worked out at 85%. Further, the pest or weed control at 140 ppm in data set [2] was found to be 100%. In addition, the pest or weed control at 140 ppm in data set [3] stood at 100%. In data set [4], the pest or weed control at 250 ppm was determined as 100%. The pest or weed control at 250 ppm in [5] turned out to be 80%. In addition, in data set [6], the pest or weed control at 140 ppm stood at 100%. In addition, the pest or weed control at 250 ppm in data set [7] is 100%. The pest or weed control at 140 ppm in data set [8] was 100%.

Regarding `C=CCc1cc(N)c(Cl)c(C(=O)O)n1` [Compound 11, 6-Allyl-4-amino-3-chloropyridine-2-carboxylic acid], the pest or weed control at 250 ppm in [1] came to 0%; in data set [4], 85%; in [5] it was 0%; in [7], 70%. For the same compound, the pest or weed control at 560 ppm amounted to 40% in data set [2], 80% in data set [3], 0% in data set [6] and 0% in [8].

Compound `CCc1nc(C(=O)O)c(Cl)c(N)c1F` [Compound 5, 4-Amino-3-chloro-6-ethyl-5-fluoropyridine-2-carboxylic acid] registered a melting point of 144 to 145 °C. Also, in data set [1], the pest or weed control at 250 ppm came to 85%. Besides, the pest or weed control at 140 ppm in [2] amounted to 100%. Moreover, the pest or weed control at 140 ppm in data set [3] worked out at 100%. Besides, in data set [4], the pest or weed control at 250 ppm was found to be 100%. The pest or weed control at 250 ppm in data set [5] amounted to 70%. Also, the pest or weed control at 140 ppm in data set [6] stood at 90%. Besides, the pest or weed control at 250 ppm in [7] amounted to 100%. For the same compound, the pest or weed control at 140 ppm in data set [8] was 90%.

On to `Cc1cc(N)c(Cl)c(C(=O)O)n1` [Compound 8, 4-Amino-3-chloro-6-methylpyridine-2-carboxylic acid], for which the pest or weed control at 250 ppm amounted to 0% in data set [1], 70% in [4], 0% in [5] and 40% in data set [7]. Besides, the pest or weed control at 280 ppm stood at 100% in data set [2], 85% in [3], 20% in [6] and 10% in [8].

Consider `C=Cc1cc(N)c(Cl)c(C(=O)OC)n1` [Compound 2, Methyl 4-amino-3-chloro-6-vinylpyridine-2-carboxylate], for which the pest or weed control at 250 ppm in [1] came out at 0%; in [4], 80%; in [5], 10%; in data set [7] it was 85%. The pest or weed control at 560 ppm is 100% in [2], 60% in data set [3], 0% in [6] and 0% in data set [8].

`C=Cc1nc(C(=O)OC)c(Cl)c(N)c1F` [Compound 1, Methyl 4-amino-3-chloro-5-fluoro-6-vinylpyridine-2-carboxylate] displayed a melting point of 68 to 71 °C. Further, the pest or weed control at 250 ppm in [1] came to 60%. In data set [2], the pest or weed control at 280 ppm amounted to 100%. Moreover, in data set [3], the pest or weed control at 280 ppm turned out to be 100%. For the same compound, in data set [4], the pest or weed control at 250 ppm worked out at 100%. Besides, the pest or weed control at 250 ppm in data set [5] turned out to be 50%. In addition, the pest or weed control at 280 ppm in [6] amounted to 95%. In addition, the pest or weed control at 250 ppm in data set [7] was determined as 100%. The pest or weed control at 280 ppm in data set [8] amounted to 90%.

`CSCc1cc(N)c(Cl)c(C(=O)O)n1` [Compound 10, 4-Amino-3-chloro-6-[(methylthio)methyl]pyridine-2-carboxylic acid]: the pest or weed control at 250 ppm in [1] turned out to be 0%; in data set [4], 85%; in data set [5], 20%; in [7], 70%. Further, the pest or weed control at 560 ppm in data set [2], in data set [3], in [6] and in [8] was 0% throughout.

`Cc1nc(C(=O)O)c(Cl)c(N)c1F` [Compound 7, 4-Amino-3-chloro-6-methyl-5-fluoropyridine-2-carboxylic acid]: the pest or weed control at 288 ppm in [1] (rate 288 ppm) turned out to be 80%; in data set [4] (rate 288 ppm), 100%; in [5] (rate 288 ppm) it was 85%; in data set [7] (rate 288 ppm), 98%. Besides, the pest or weed control at 295 ppm in data set [2] (rate 295 ppm) turned out to be 98%; in [3] (rate 295 ppm), 98%; in [6] (rate 295 ppm), 85%; in data set [8] (rate 295 ppm), 85%.

Usually melting point stands for the temperature, or range, at which the solid turns liquid.
